Results from US20250163104A1, “MACROCYCLIC IMMUNOMODULATORS” (priority 2021, published 2025).
*1 amine or outer side, *2 acyl side, *3 side chain or, on linkers, in order; H or OH if unused. Where a SMILES comes first, the peptide text is derived from it. Bridges are numbered along the chain shown (N, C = ends). [ ]: non-standard residue; d: D form. The star is where a group is joined. ξ: configuration not given here. Phe(4-COOH) = N[C@@H](Cc1ccc(C(=O)O)cc1)C(=O)O; Bip = N[C@@H](Cc1ccc(-c2ccccc2)cc1)C(=O)O; Phe(3-Me) = Cc1cccc(C[C@H](N)C(=O)O)c1; γGlu = O=C(O)[C@H](CCC(=O)[*:2])N[*:1]; Val(3-OH) = CC(C)(O)[C@H](N)C(=O)O; 4Pal = N[C@@H](Cc1ccncc1)C(=O)O; Cha = N[C@@H](CC1CCCCC1)C(=O)O; Cit = NC(=O)NCCC[C@H](N)C(=O)O; Ile(3ξ) = CCC(C)[C@H](N)C(=O)O; Thr(3ξ) = CC(O)[C@H](N)C(=O)O; Ahp(2) = CCCCC[C@H](N)C(=O)O; dNle = CCCC[C@@H](N)C(=O)O; Carboxymethyl = O=C(O)C*; Orn = NCCC[C@H](N)C(=O)O; Pra = C#CC[C@H](N)C(=O)O; Dab = NCC[C@H](N)C(=O)O; Dap = NC[C@H](N)C(=O)O

The molecules below were run against T1, human PD-1 / PD-L1-Ig binding on Jurkat cell line over-expressing human PD-1 (Jurkat-PD-1) (Homo sapiens, UniProt Q15116) (assay: Jurkat-PD-1 Cell Binding High-Content Screening Assay (CBA)). Conditions: Jurkat-PD-1 cells, PE-labeled PD-L1-Ig 20 nM final; read-out: Jurkat HPD1_PDL1 IC50.
T1 construct: expressed in transfected cells; host or cells: Jurkat
T1 sequence (Q15116 25-288): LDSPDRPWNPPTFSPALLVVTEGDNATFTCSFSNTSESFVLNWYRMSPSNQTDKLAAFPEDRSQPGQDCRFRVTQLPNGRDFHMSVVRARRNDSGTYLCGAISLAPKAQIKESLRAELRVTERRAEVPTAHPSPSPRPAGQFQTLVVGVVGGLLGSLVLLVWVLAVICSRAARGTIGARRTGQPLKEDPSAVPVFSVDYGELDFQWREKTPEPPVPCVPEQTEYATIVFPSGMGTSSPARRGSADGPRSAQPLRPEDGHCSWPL
Format: cell-based
Protocol: Example 3. Jurkat-PD-1 Cell Binding High-Content Screening Assay (CBA)
Jurkat-PD-1 Cell Binding High-Content Screening Assay (CBA). Phycoerythrin (PE) was covalently linked to the Ig epitope tag of human PD-L1-Ig and fluorescently-labeled PD-L1-Ig was used for binding studies with a Jurkat cell line over-expressing human PD-1 (Jurkat-PD-1). Briefly, 8×10^3 Jurkat-hPD-1 cells were seeded into 384 well plates in 20 μl of DMEM supplemented with 10% fetal calf serum. 100 nL of compound was added to cells followed by incubation at 37° C. for 2 h. Then, 5 μl of PE-labeled PD-L1-Ig (20 nM final), diluted in DMEM supplemented with 10% fetal calf serum. After 1 hour incubation, cells were fixed with 4% paraformaldehyde in dPBS containing 10 μg/ml Hoechst 33342 and then washed 3x in 100 μl dPBS. Data was collected and processed using a Cell Insight NXT High Content Imager and associated software.

IC50 [nM] | Compound
249 | Cc1cccc(C[C@@H]2NC(=O)[C@H](CC(=O)O)NC(=O)[C@H](Cc3ccc(C(=O)O)cc3)NC(=O)[C@H](Cc3ccncc3)NC(=O)CSC[C@@H](C(=O)N[C@@H](CCN)C(N)=O)NC(=O)[C@H](CCC(=O)O)NC(=O)[C@H](C(C)(C)O)NC(=O)[C@H](CC3CCCCC3)NC(=O)[C@H](CCN)NC(=O)[C@@H](CC(C)C)NC(=O)[C@H](CCCN)NC(=O)[C@H](Cc3ccc(OCC(=O)O)cc3)NC(=O)[C@H](Cc3ccc(-c4ccccc4)cc3)NC(=O)[C@H](Cc3ccc(OCC(=O)O)cc3)NC2=O)c1 [Compound 2330] ({CH2CO}-[4Pal][Phe(4-COOH)]D[Phe(3-Me)]Y(Carboxymethyl)[Bip]Y(Carboxymethyl)[Orn][dL][Dab][Cha][Val(3-OH)]EC[Dab]-NH2; thioether N-14)
20.5 | CC(C)C[C@@H]1NC(=O)[C@H](CCN)NC(=O)[C@@H](CC(C)C)NC(=O)[C@H](CCN)NC(=O)[C@H](C(C)C)NC(=O)[C@H](Cc2ccc(-c3ccccc3)cc2)NC(=O)[C@H](C(C)C)NC(=O)[C@H](Cc2c[nH]c3ccccc23)NC(=O)[C@H](CC(N)=O)NC(=O)[C@H](Cc2ccc(O)cc2)NC(=O)[C@H](CC(N)=O)NC(=O)CSC[C@@H](C(=O)NCC(N)=O)NC(=O)[C@H]([C@@H](C)O)NC(=O)[C@H](C(C)C)NC1=O [Compound 1086] ({CH2CO}-NYNWV[Bip]V[Dab][dL][Dab]LVTCG-NH2; thioether N-14)
41.5 | CC(C)C[C@@H]1NC(=O)[C@H](CCN)NC(=O)[C@@H](CC(C)C)NC(=O)[C@H](CCCCN)NC(=O)[C@H](C(C)C)NC(=O)[C@H](Cc2ccc(-c3ccccc3)cc2)NC(=O)[C@H](C(C)C)NC(=O)[C@H](Cc2c[nH]c3ccccc23)NC(=O)[C@H](CC(N)=O)NC(=O)[C@H](Cc2ccc(O)cc2)NC(=O)[C@H](CC(N)=O)NC(=O)CSC[C@@H](C(=O)NCC(N)=O)NC(=O)[C@H](CO)NC(=O)[C@H](C(C)C)NC1=O [Compound 1082] ({CH2CO}-NYNWV[Bip]VK[dL][Dab]LVSCG-NH2; thioether N-14)
19.7 | CC[C@H](C)[C@@H]1NC(=O)[C@H](Cc2ccc(-c3ccccc3)cc2)NC(=O)[C@H](C(C)C)NC(=O)[C@H](Cc2c[nH]c3ccccc23)NC(=O)[C@H](CC(=O)O)NC(=O)[C@H](Cc2ccc(O)cc2)NC(=O)[C@H](CC(N)=O)NC(=O)CSC[C@@H](C(=O)N[C@@H](C)C(N)=O)NC(=O)[C@H]([C@@H](C)O)NC(=O)[C@H](C(C)C)NC(=O)[C@H](CC(C)C)NC(=O)[C@H](CCCCN)NC(=O)[C@@H](CC(C)C)NC(=O)[C@H](CCCN)NC1=O [Compound 1129] ({CH2CO}-NYDWV[Bip]I[Orn][dL]KLVTCA-NH2; thioether N-14)
26.9 | CC(C)C[C@@H]1NC(=O)[C@H](Cc2c[nH]c3ccccc23)NC(=O)[C@H](CC(=O)O)NC(=O)[C@H](Cc2ccc(O)cc2)NC(=O)[C@H](Cc2ccccc2)NC(=O)CSC[C@@H](C(=O)NCC(N)=O)NC(=O)[C@H](CO)NC(=O)[C@H](C(C)C)NC(=O)[C@H](CC2CCCCC2)NC(=O)[C@H](CC(N)=O)NC(=O)[C@@H](CC(C)C)NC(=O)[C@H](CCCN)NC(=O)[C@H](C(C)C)NC(=O)[C@H](Cc2ccc(-c3ccccc3)cc2)NC1=O [Compound 1334] ({CH2CO}-FYDWL[Bip]V[Orn][dL]N[Cha]VSCG-NH2; thioether N-14)
4.6 | C#CC[C@H](NC(=O)CC[C@H](NC(=O)[C@H](C)NC(=O)[C@@H]1CSCC(=O)N[C@@H](CN)C(=O)N[C@@H](Cc2ccc(OCC(=O)O)cc2)C(=O)N[C@@H](CC(=O)O)C(=O)N[C@@H](Cc2cccc(C)c2)C(=O)N[C@@H](Cc2ccc(OCC(=O)O)cc2)C(=O)N[C@@H](Cc2ccc(-c3ccccc3)cc2)C(=O)N[C@@H](Cc2ccc(OCC(=O)O)cc2)C(=O)N[C@@H](CCCN)C(=O)N[C@H](CC(C)C)C(=O)N[C@@H](CCN)C(=O)N[C@@H](CC2CCCCC2)C(=O)N[C@@H](C(C)C)C(=O)N[C@@H]([C@@H](C)O)C(=O)N1)C(=O)O)C(N)=O [Compound 1807] ({CH2CO}-[Dap]Y(Carboxymethyl)D[Phe(3-Me)]Y(Carboxymethyl)[Bip]Y(Carboxymethyl)[Orn][dL][Dab][Cha]VTCA[γGlu][Pra]-NH2; thioether N-14)
8.5 | CC(C)C[C@H]1NC(=O)[C@H](CCCN)NC(=O)[C@H](CCCCN)NC(=O)[C@H](Cc2ccc(-c3ccccc3)cc2)NC(=O)[C@H](C(C)C)NC(=O)[C@H](Cc2c[nH]c3ccccc23)NC(=O)[C@H](CC(=O)O)NC(=O)[C@H](Cc2ccncc2)NC(=O)[C@H](CN)NC(=O)CSC[C@@H](C(=O)N[C@@H](C)C(N)=O)NC(=O)[C@H]([C@@H](C)O)NC(=O)[C@H](C(C)C)NC(=O)[C@H](CC2CCCCC2)NC(=O)[C@H](CCN)NC1=O [Compound 1389] ({CH2CO}-[Dap][4Pal]DWV[Bip]K[Orn][dL][Dab][Cha]VTCA-NH2; thioether N-14)
13.9 | CC(C)C[C@@H]1NC(=O)[C@H](Cc2c[nH]c3ccccc23)NC(=O)[C@H](CC(=O)O)NC(=O)[C@H](Cc2ccc(O)cc2)NC(=O)[C@H](Cc2ccccc2)NC(=O)CSC[C@@H](C(=O)N[C@@H](C)C(N)=O)NC(=O)[C@H](CO)NC(=O)[C@H](C(C)C)NC(=O)[C@H](CC(C)C)NC(=O)[C@H](CCN)NC(=O)[C@@H](CC(C)C)NC(=O)[C@H](CCCN)NC(=O)[C@H](C(C)C)NC(=O)[C@H](Cc2ccc(-c3ccccc3)cc2)NC1=O [Compound 1069] ({CH2CO}-FYDWL[Bip]V[Orn][dL][Dab]LVSCA-NH2; thioether N-14)
9.7 | CCCC[C@H]1NC(=O)[C@H](CCCN)NC(=O)[C@H](CCC(=O)O)NC(=O)[C@H](Cc2ccc(-c3ccccc3)cc2)NC(=O)[C@H](C(C)C)NC(=O)[C@H](Cc2c[nH]c3ccccc23)NC(=O)[C@H](CC(=O)O)NC(=O)[C@H](Cc2ccc(O)cc2)NC(=O)[C@H](CC(N)=O)NC(=O)CSC[C@@H](C(=O)N[C@@H](C)C(N)=O)NC(=O)[C@H]([C@@H](C)O)NC(=O)[C@H](C(C)C)NC(=O)[C@H](CC2CCCCC2)NC(=O)[C@H](CCN)NC1=O [Compound 1453] ({CH2CO}-NYDWV[Bip]E[Orn][dNle][Dab][Cha]VTCA-NH2; thioether N-14)
58.4 | CCCCC[C@@H]1NC(=O)[C@H](Cc2ccc(-c3ccccc3)cc2)NC(=O)[C@H](C(C)C)NC(=O)[C@H](Cc2c[nH]c3ccccc23)NC(=O)[C@H](CC(=O)O)NC(=O)[C@H](Cc2ccc(C(=O)O)cc2)NC(=O)[C@H](Cc2ccncc2)NC(=O)CSC[C@@H](C(=O)N[C@@H](CC(N)=O)C(N)=O)NC(=O)[C@H](CO)NC(=O)[C@H](C(C)C)NC(=O)[C@H](CC2CCCCC2)NC(=O)[C@H](CCN)NC(=O)[C@@H](C)NC(=O)[C@H](CCCN)NC1=O [Compound 2541] ({CH2CO}-[4Pal][Phe(4-COOH)]DWV[Bip][Ahp(2)][Orn][dA][Dab][Cha]VSCN-NH2; thioether N-14)
17.5 | CC(C)C[C@@H]1NC(=O)[C@H](Cc2c[nH]c3ccccc23)NC(=O)[C@H](CC(=O)O)NC(=O)[C@H](Cc2ccc(O)cc2)NC(=O)[C@H](Cc2ccccc2)NC(=O)CSC[C@@H](C(=O)N[C@@H](C)C(N)=O)NC(=O)[C@H](CO)NC(=O)[C@H](C(C)C)NC(=O)[C@H](CC(C)C)NC(=O)[C@H](CCN)NC(=O)[C@@H](CC(C)C)NC(=O)[C@H](CCN)NC(=O)[C@H](CCCNC(N)=O)NC(=O)[C@H](Cc2ccc(-c3ccccc3)cc2)NC1=O [Compound 1228] ({CH2CO}-FYDWL[Bip][Cit][Dab][dL][Dab]LVSCA-NH2; thioether N-14)
6.1 | CC(C)C[C@H]1NC(=O)[C@H](CCCN)NC(=O)[C@H](C(C)C)NC(=O)[C@H](Cc2ccc(-c3ccccc3)cc2)NC(=O)[C@H](C(C)C)NC(=O)[C@H](Cc2c[nH]c3ccccc23)NC(=O)[C@H](CC(=O)O)NC(=O)[C@H](Cc2ccc(OCC(=O)O)cc2)NC(=O)[C@H](Cc2ccc(OCC(=O)O)cc2)NC(=O)CSC[C@@H](C(=O)N[C@@H](C)C(N)=O)NC(=O)[C@H](CN)NC(=O)[C@H](C(C)C)NC(=O)[C@H](CC2CCCCC2)NC(=O)[C@H](CCN)NC1=O [Compound 1740] ({CH2CO}-Y(Carboxymethyl)Y(Carboxymethyl)DWV[Bip]V[Orn][dL][Dab][Cha]V[Dap]CA-NH2; thioether N-14)
20.8 | CCC(C)[C@@H]1NC(=O)[C@H](Cc2ccc(-c3ccccc3)cc2)NC(=O)[C@H](C(C)C)NC(=O)[C@H](Cc2c[nH]c3ccccc23)NC(=O)[C@H](CC(=O)O)NC(=O)[C@H](Cc2ccc(OCC(=O)O)cc2)NC(=O)[C@H](CCN)NC(=O)CSC[C@@H](C(=O)N[C@@H](C)C(N)=O)NC(=O)[C@H](C(C)O)NC(=O)[C@H](C(C)C)NC(=O)[C@H](CC(C)C)NC(=O)[C@H](CCN)NC(=O)[C@@H](CC(C)C)NC(=O)[C@H](CCCN)NC1=O (stereo partly drawn) [Compound 2507] ({CH2CO}-[Dab]Y(Carboxymethyl)DWV[Bip][Ile(3ξ)][Orn][dL][Dab]LV[Thr(3ξ)]CA-NH2; thioether N-14)
12.1 | Cc1cccc(C[C@@H]2NC(=O)[C@H](CC(=O)O)NC(=O)[C@H](Cc3ccc(C(=O)O)cc3)NC(=O)[C@H](Cc3ccncc3)NC(=O)CSC[C@@H](C(=O)N[C@@H](CCN)C(N)=O)NC(=O)[C@H](CO)NC(=O)[C@H](C(C)C)NC(=O)[C@H](CC3CCCCC3)NC(=O)[C@H](CCN)NC(=O)[C@@H](CC(C)C)NC(=O)[C@H](CCCN)NC(=O)[C@H](Cc3ccc(OCC(=O)O)cc3)NC(=O)[C@H](Cc3ccc(-c4ccccc4)cc3)NC(=O)[C@H](Cc3ccc(OCC(=O)O)cc3)NC2=O)c1 [Compound 2307] ({CH2CO}-[4Pal][Phe(4-COOH)]D[Phe(3-Me)]Y(Carboxymethyl)[Bip]Y(Carboxymethyl)[Orn][dL][Dab][Cha]VSC[Dab]-NH2; thioether N-14)
